The test system of data set [1] is myeloma and NSCLC mouse xenograft models. As to conditions: at a dose 33% of the MAD; cited from earlier work.
Data set [2] relates to metabolically active sites of disease. The data set is described as follows: FDG-PET/CT tumor metabolic activity (SUVmax). The note with it: RP2D 12 mg/m^2, 10 evaluable subjects; responder = SUVmax decrease greater than 30%; 2-sided 95% CI: 0.3%, 44.5%.
From the text: Metabolic activity data were obtained for research use only and were not used for clinical management of subjects.
The subject of another data set is nude mice. The note with it: once-daily administration for 7 days in nude mice; cited from earlier work.
The subject of the next data set is solid tumors. The data set is described as follows: Tumor response by CT or MRI and RECIST. In kind it is in vivo, human.
Data set [3] concerns subjects with advanced malignancies. The note with it: human, in vivo, iv, 28 days.
Method: Subjects continued on treatment until there was disease progression, unacceptable toxicity, or the subject withdrew consent. The trial employed an accelerated titration design [16] starting at a dose of 0.33 mg/m^2 (one-sixth of the highest nontoxic dose in dogs).
the dose was doubled in sequential subjects until a DLT was observed or a subject experienced grade 2 toxicity [16]. In the case of an observed grade 2 toxicity, a second subject was enrolled at the same dose level. If the second subject also experienced a grade 2 toxicity, 2 additional subjects were accrued at that dose level for a total of 4 subjects. […] Each subject was allocated to only a single dose level of drug. Dose delay or modification was permitted based on laboratory and clinical assessment performed on the day of treatment.
Dose-limiting toxicities were determined during the first cycle for each dose level. A DLT was defined as any grade 3 or 4 hematologic toxicity lasting for at least 1 week, or as any grade 3 or 4 nonhematologic toxicity. […] Normal alkaline phosphatase level (< grade 1) at screening that rose to greater than or equal to grade 3; grade 1 or 2 alkaline phosphatase level at screening that rose to grade 4; grade 1 or 2 aspartate aminotransferase (AST) and/or alanine aminotransferase (ALT) levels at screening that doubled from baseline to become greater than or equal to grade 3; and any other abnormal nonhematology laboratory value greater than or equal to grade 3 that required medical intervention to treat, led to hospitalization, or persisted for at least 1 week were also considered DLTs.
Adverse events were graded based on the National Cancer Institute Common Terminology Criteria for Adverse Events (NCI CTCAE version 3.0) and were coded using the Medical Dictionary for Regulatory Activities (MedDRA version 13.0).
Another data set has as its system mouse xenograft model. The note with it: cited from earlier work.

Take `CCc1cnn2c(NCc3ccc[n+]([O-])c3)cc(N3CCCC[C@H]3CCO)nc12` [dinaciclib]: in data set [1], the “tumor response in xenograft models” value is listed as “complete tumor regression”. Further, the PET/CT response rate in data set [2] is reported as 10.0%. For the same compound, the “maximum tolerated dose, defined as the dose associated with 20% weight loss” value with nude mice is listed as 60 mg/kg. The Number of cycles with solid tumors (Subject 2902, NSCLC, 0.66 mg/m^2, stable disease) was 6; in the data set on solid tumors (Subject 2910, Pseudomyxoma peritonei, 2.59 mg/m^2, stable disease) it was 9; in the data set with solid tumors (Subject 2913, Prostate cancer, 3.63 mg/m^2, stable disease), 4; in the data set with solid tumors (Subject 2920, Melanoma, 3.63 mg/m^2, stable disease) it was 10; in the data set with solid tumors (Subject 2926, Sarcoma, 7.11 mg/m^2, stable disease) it was 12; with solid tumors (Subject 2928, Gastrointestinal stromal tumor, 7.11 mg/m^2, stable disease), 10. In addition, the Number of cycles stood at 11 in the data set with solid tumors (Subject 2931, Esophageal carcinoma, 7.11 mg/m^2, stable disease); 5 with solid tumors (Subject 2932, Adenoid cyst carcinoma, 7.11 mg/m^2, stable disease); 8 in the data set with solid tumors (Subject 2937, Adenoid cyst carcinoma, 14.0 mg/m^2, stable disease); 4 with solid tumors (Subject 2945, NSCLC, 12.0 mg/m^2, stable disease). The “subjects with prolonged SD for at least 4 cycles of treatment” value with solid tumors (all dose levels) is “at least 10 subjects”. Besides, in the data set on solid tumors (subjects with solid tumors, all dose levels), the “complete or partial responses (RECIST)” value is “no observed complete or partial responses”. Further, the “recommended phase 2 dose (RP2D)” value in data set [3] worked out at 12 mg/m^2. In addition, the “minimum effective dose, defined as >50% tumor growth inhibition” value in the data set with mouse xenograft model is 5 mg/kg.

The values are drawn from paper PMC3853718 (Journal of Translational Medicine, 2013).
